Measured values from ChEMBL document CHEMBL1157993, “Structure-antimutagenic activity relationship study of plicatin B” (J Nat Prod, 1999).

Assays:
Salmonella typhimurium [1] = test: Antimutagenic activity in Salmonella Typhimurium TA100 assessed as inhibition of ethyl methanesulfonate-induced mutation at 7.8 uM treated for 30 mins and measured after 2 days by modified Ames test; type: functional, Salmonella enterica subsp. enterica serovar Typhimurium; settings: Salmonella enterica
Salmonella typhimurium [2] = test: Antimutagenic activity in Salmonella Typhimurium TA100 assessed as inhibition of ethyl methanesulfonate-induced mutation at 31.3 uM treated for 30 mins and measured after 2 days by modified Ames test; type: functional, Salmonella enterica subsp. enterica serovar Typhimurium; settings: Salmonella enterica
Salmonella typhimurium [3] = test: Antimutagenic activity in Salmonella Typhimurium TA100 assessed as inhibition of ethyl methanesulfonate-induced mutation at 3.9 uM treated for 30 mins and measured after 2 days by modified Ames test; type: functional, Salmonella enterica subsp. enterica serovar Typhimurium; settings: Salmonella enterica
[4] = Cytotoxicity against Salmonella Typhimurium TA100 assessed as maximun non-toxic concentrations after 15 hrs […]; type: organism-based; settings: salmonella enterica subsp. enterica serovar typhimurium, Salmonella Typhimurium TA100 cells; read-out: Activity
Salmonella typhimurium [5] = test: Antimutagenic activity in Salmonella Typhimurium TA100 assessed as inhibition of ethyl methanesulfonate-induced mutation at 3.9 to 125 uM treated for 30 mins and measured after 2 days by modified Ames test; type: functional, Salmonella enterica subsp. enterica serovar Typhimurium
Salmonella typhimurium [6] = test: Antimutagenic activity in Salmonella Typhimurium TA100 assessed as inhibition of ethyl methanesulfonate-induced mutation at 25 ug/mL treated for 30 mins and measured after 2 days by modified Ames test; type: functional, Salmonella enterica subsp. enterica serovar Typhimurium; settings: Salmonella enterica
Salmonella typhimurium [7] = test: Antimutagenic activity in Salmonella Typhimurium TA100 assessed as inhibition of ethyl methanesulfonate-induced mutation at 125 uM treated for 30 mins and measured after 2 days by modified Ames test; type: functional, Salmonella enterica subsp. enterica serovar Typhimurium; settings: Salmonella enterica
Salmonella typhimurium [8] = test: Antimutagenic activity in Salmonella Typhimurium TA100 assessed as inhibition of ethyl methanesulfonate-induced mutation at 15.6 ug/mL treated for 30 mins and measured after 2 days by modified Ames test; type: functional, Salmonella enterica subsp. enterica serovar Typhimurium; settings: Salmonella enterica
Salmonella typhimurium [9] = test: Antimutagenic activity in Salmonella Typhimurium TA100 assessed as inhibition of ethyl methanesulfonate-induced mutation at 82.5 uM treated for 30 mins and measured after 2 days by modified Ames test; type: functional, Salmonella enterica subsp. enterica serovar Typhimurium; settings: Salmonella enterica

Row | SMILES | inhibition at 7.8 µM (Salmonella typhimurium [1]) | inhibition at 3.9 µM (Salmonella typhimurium [3]) | also measured
1 | CC(C)=CCc1cc(/C=C/CO)ccc1O | 27.1% | 20.2% | inhibition at 31.3 µM (Salmonella typhimurium [2]): 36.8%
2 | COC(=O)CCc1ccc(O)c(CC=C(C)C)c1 | 38.5% | 25.2% | MNTC at 15 h [4]: 31.3 µM; inhibition at 31.3 µM (Salmonella typhimurium [2]): 46.8%
3 | COC(=O)CCc1ccc(O)cc1 [4-HYDROXYHYDROCINNAMIC ACID METHYL ESTER] |  |  | inhibition (INH) (Salmonella typhimurium [5]): 0%
4 | O=C/C=C/c1ccccc1 [CINNAMALDEHYDE] |  |  | inhibition at 25 µg/mL (Salmonella typhimurium [6]): 30%; MNTC at 15 h [4]: 25 µg/mL
5 | O=C(O)/C=C/c1ccc(O)cc1 [COUMARIC ACID] | 13.6% | 11.2% | inhibition at 125 µM (Salmonella typhimurium [7]): 49.8%
6 | CC(C)=CCc1cc(/C=C/C(=O)O)ccc1O [DRUPANIN] | 0.6% | 0.3% | inhibition at 15.6 µg/mL (Salmonella typhimurium [8]): 12%
7 | COC(=O)/C=C/c1ccc(O)cc1 [METHYL P-HYDROXYCINNAMATE] | 0.9% | 0% | inhibition at 82.5 µM (Salmonella typhimurium [9]): 7.6%
8 | COC(=O)/C=C/c1ccc(OC)c(CC=C(C)C)c1 [PALICATIN B METHYL ETHER] | 21.5% | 13.2% | 
9 | COC(=O)/C=C/c1ccc(O)c(CC=C(C)C)c1 [PLICATIN B] | 30.2% | 25.4% | 
